Assay results published in BindingDB's records for doi:10.1016/j.bmcl.2010.10.033 (Glaxosmithkline, 2010).
pIC50: −log10 of the molar value.

experiment: Antagonist activity at CCR5 in HOS cells assessed as inhibition of HIV-1 Ba-L infection

SMILES	pIC50
C=CCN(C(=O)Cc1ccc(C(N)=O)cc1)C1CCN(CCC2(c3cccc(F)c3)CCN(C(=O)c3cc(S(=O)(=O)NC(C)(C)C)c(F)cc3Cl)CC2)CC1 [4-(2-(allyl(1-(2-(1-(5-(N-tert-butylsulfamoyl)-2-chloro-4-fluorobenzoyl)-4-(3-fluorophenyl)piperidin-4-yl)ethyl)piperidin-4-yl)amino)-2-oxoethyl)benzamide]	6.68
C=CCN(C(=O)Nc1ccc(OC(C)=O)cc1)C1CCN(CCC2(c3cccc(F)c3)CCN(C(=O)c3cc(S(=O)(=O)NC(C)(C)C)c(F)cc3Cl)CC2)CC1 [4-(3-allyl-3-(1-(2-(1-(5-(N-tert-butylsulfamoyl)-2-chloro-4-fluorobenzoyl)-4-(3-fluorophenyl)piperidin-4-yl)ethyl)piperidin-4-yl)ureido)phenyl acetate]	7.22
C=CCN(C(=O)NCc1ccc(C(N)=O)cc1)C1CCN(CCC2(c3cccc(F)c3)CCN(C(=O)c3cc(S(=O)(=O)NC(C)(C)C)c(F)cc3Cl)CC2)CC1 [4-((3-allyl-3-(1-(2-(1-(5-(N-tert-butylsulfamoyl)-2-chloro-4-fluorobenzoyl)-4-(3-fluorophenyl)piperidin-4-yl)ethyl)piperidin-4-yl)ureido)methyl)benzamide]	5.51
C=CCN(C(=O)OCc1ccc(OC(F)(F)F)cc1)C1CCN(CCC2(c3cccc(F)c3)CCN(C(=O)c3cc(S(=O)(=O)NC(C)(C)C)c(F)cc3Cl)CC2)CC1 [4-(trifluoromethoxy)benzyl allyl(1-(2-(1-(5-(N-tert-butylsulfamoyl)-2-chloro-4-fluorobenzoyl)-4-(3-fluorophenyl)piperidin-4-yl)ethyl)piperidin-4-yl)carbamate]	7.57
C=CCN(C(=O)OCc1ccc(C#N)cc1)C1CCN(CCC2(c3cccc(F)c3)CCN(C(=O)c3cc(S(=O)(=O)NC(C)(C)C)c(F)cc3Cl)CC2)CC1 [4-cyanobenzyl allyl(1-(2-(1-(5-(N-tert-butylsulfamoyl)-2-chloro-4-fluorobenzoyl)-4-(3-fluorophenyl)piperidin-4-yl)ethyl)piperidin-4-yl)carbamate]	8.35

Next, values leading:

pIC50	SMILES
7.66	C=CCN(C(=O)OCc1ccc(F)cc1)C1CCN(CCC2(c3cccc(F)c3)CCN(C(=O)c3cc(S(=O)(=O)NC(C)(C)C)c(F)cc3Cl)CC2)CC1 [4-fluorobenzyl allyl(1-(2-(1-(5-(N-tert-butylsulfamoyl)-2-chloro-4-fluorobenzoyl)-4-(3-fluorophenyl)piperidin-4-yl)ethyl)piperidin-4-yl)carbamate]
7.19	C=CCN(C(=O)Nc1ccc(C(F)(F)F)cc1)C1CCN(CCC2(c3cccc(F)c3)CCN(C(=O)c3cc(S(=O)(=O)NC(C)(C)C)c(F)cc3Cl)CC2)CC1 [5-(4-(2-(4-(1-allyl-3-(4-(trifluoromethyl)phenyl)ureido)piperidin-1-yl)ethyl)-4-(3-fluorophenyl)piperidine-1-carbonyl)-N-tert-butyl-4-chloro-2-fluorobenzenesulfonamide]
7.34	C=CCN(C(=O)NCc1ccc(F)cc1)C1CCN(CCC2(c3cccc(F)c3)CCN(C(=O)c3cc(S(=O)(=O)NC(C)(C)C)c(F)cc3Cl)CC2)CC1 [5-(4-(2-(4-(1-allyl-3-(4-fluorobenzyl)ureido)piperidin-1-yl)ethyl)-4-(3-fluorophenyl)piperidine-1-carbonyl)-N-tert-butyl-4-chloro-2-fluorobenzenesulfonamide]
7.47	C=CCN(C(=O)Nc1ccc(F)cc1)C1CCN(CCC2(c3cccc(F)c3)CCN(C(=O)c3cc(S(=O)(=O)NC(C)(C)C)c(F)cc3Cl)CC2)CC1 [5-(4-(2-(4-(1-allyl-3-(4-fluorophenyl)ureido)piperidin-1-yl)ethyl)-4-(3-fluorophenyl)piperidine-1-carbonyl)-N-tert-butyl-4-chloro-2-fluorobenzenesulfonamide]
